We go through 7 compounds from patent US20240382497A1, “PROPHYLACTIC OR THERAPEUTIC AGENT FOR HYPOXIC INJURY, ISCHAEMIA-REPERFUSION INJURY AND INFLAMMATION, CELL PROTECTION AGENT FOR TRANSPLANTATION, AND BIO-PRESERVATION AGENT” (priority 2018, published 2024).

One assay relates to male C57/BL6N mouse. In words: Survival time in 4% oxygen after Trpa1 agonist i.p. The format is in vivo. As to conditions: wild-type mouse; i.p. Δ9-THC 10 mg/kg, AITC 40 mg/kg, APAP 300 mg/kg; 30 min before 4% oxygen; versus saline. As to the method:
(§1) Saline or known Trpa1 agonists Δ9-tetrahydrocannabinol (Δ^9-THC; 10 mg/kg), allyl isothiocyanate (AITC; 40 mg/kg), or acetaminophen (APAP; 300 mg/kg) was intraperitoneally administered to male C57/BL6N mouse (about 3-month-old) and, 30 min later, the mouse was placed in a tight box with adjusted oxygen concentration of 4%, and the survival time of the mouse was measured for 30 min at maximum. As to APAP, the survival time in 4% oxygen environment was also measured using male Trpa1 knockout and littermate hetero mice (about 3-to 6-month-old).

Assay [1] concerns C57/BL6N male mice. In words: Survival time in 4% oxygen after intraperitoneal NaHS or 2-methylthiophene. As to conditions: 200 μl i.p. of 1% solution; all individuals; observation time of 30 min. The format is in vivo, mouse. Here is the method: Thus, the survival time was measured at the remaining three concentrations. As a control, the survival time of the mice intraperitoneally injected with saline or 2-methylthiophene (1% solution) in 4% oxygen was measured.

Assay [2] relates to C57/BL6N male mice. Kind of assay: Survival time in 4% oxygen after intraperitoneal administration. The format is in vivo, mouse. As to conditions: Example 12, about 80 mg/kg i.p., 30 min before 4% oxygen, Kaplan-Meier, versus saline. As to the method:
Influence of intraperitoneal administration of various kinds of heterocyclic compounds on the survival time of mouse under hypoxic environment was analyzed. The odor molecule was administered by a method of intraperitoneally injecting 200 μl (about 80 mg/kg, i.p.) of a solution diluted 100 times with saline and, 30 min later, the mice were placed in a tight box with adjusted oxygen concentration of 4%, and the survival time of the mouse was measured for 30 min at maximum. As a control, the survival time of the mice intraperitoneally injected with saline (control) was measured.
By a method similar to that in Example 10, influence of intraperitoneal administration of various isothiocyanate compounds (about 80 mg/kg, i.p.) on the survival time of mouse under hypoxic environment was analyzed.
About 3-month-old C57/BL6N male mice were intraperitoneally injected with 200 μl (about 80 mg/kg, i.p.) of a thiomorpholine solution diluted 100 times with saline and, 30 min later, the mice were placed in a tight box with adjusted oxygen concentration of 4%, and the survival time of the mouse was measured. As a control, the survival time of the mice intraperitoneally injected with saline was measured.

Assay [3] concerns wild-type and Trpa1 knockout mice. Kind of assay: Survival time in 4% oxygen, thiomorpholine i.p., wild-type and Trpa1 knockout mice. Type of assay: in vivo, mouse. As to conditions: about 80 mg/kg i.p. As to the method:
A heterocyclic compound (thiomorpholine) (200 μl, about 80 mg/kg) diluted 100 times with saline was intraperitoneally injected to male wild-type and Trpa1 knockout mice (about 3 to 6-month-old) and, 30 min later, the mice were placed in a tight box in which the oxygen concentration was adjusted to 4%, and the survival time of the mice was measured.

For the next assay, the system named is mice. In words: Oxygen consumption after intraperitoneal injection. Conditions: versus saline. The format is in vivo, mouse. Here is the method: An influence of a thiazoline-related compound on the oxygen consumption was analyzed. The oxygen consumption was analyzed using an energy metabolism measurement device for small animals (ARCO-2000; ARCO SYSTEM). About 3-month-old C57/BL6N male mice were each placed in a measuring chamber and, after acclimation for about 2 hr, a thiazoline-related compound (2MT) was presented. The odors were presented by placing filter papers scented with 100 μl (104 mmol) of odor molecules in the measuring chamber. As a control, an experiment in which a filter paper dropped with saline was presented to the mice was also performed. The oxygen consumption was measured every one min. Mean oxygen consumption was calculated as the mean of 10 min before presenting odor and 20 min after presenting odor.
Changes in the oxygen consumption induced by intraperitoneal injection of heterocyclic compounds (2MT and Thiomorpholine (TMO) were measured by a method similar to that in Example 8.

In assay [4] the test system is Trpa1 knockout and littermate hetero mice. Kind of assay: Survival time in 4% oxygen after APAP i.p., Trpa1 knockout and hetero mice. The format is in vivo, mouse. As to conditions: 300 mg/kg i.p., versus saline. As to the method: as §1
The subject of a further assay is TNF-α. In words: Blood TNF-α after LPS and 4E2MT, Trpa1 knockout and control mice. As to conditions: 1 hr after simultaneous i.p. administration with LPS. Type of assay: in vivo, mouse. Here is the method: Lipopolysaccharide (LPS) (0.6 mg/kg) was intraperitoneally administered to male Balb/c mice (about 2-3 months old) to generate a sepsis model. Immediately after the LPS administration, 200 μl (about 80 mg/kg) of a solution prepared by diluting various heterocyclic compounds and isothiocyanate compounds 100 times with saline was intraperitoneally administered. Blood samples were collected 60 min after LPS and compound administration, EDTA plasma was prepared, and the blood level of inflammatory cytokine TNF-a was measured by the ELISA method.
Changes in the body surface temperature, survival time under a hypoxic environment, and TNF-α production in blood by LPS administration induced by intraperitoneally administration of thiazoline-related compound (4-ethyl-2-methyl-2-thiazoline; 4E2MT) measured by a method similar to those in Example 3, Example 10, or Example 18.

The conditions of assay [5]: Yu et al., Cell Physiol Biochem 36: 1539-1551, 2015; cited from earlier work.

For the compound `C=CCN=C=S` [AITC, allyl isothiocyanate], the “survival time in 4% oxygen” value in the assay with male C57/BL6N mouse was “extending the survival time”. In the case of `Cc1cccs1` [2-methylthiophene], in the assay with C57/BL6N male mice [1], the “survival time in 4% oxygen” value was not below 30 min. For `C1CSCCN1` [thiomorpholine], in the assay with C57/BL6N male mice [2], the “survival time in 4% oxygen (hypoxia resistance)” value is on record as “produces hypoxia resistance”. Moreover, the “survival time in 4% oxygen” value is “survival time significantly decreased” in assay [3] (Trpa1 knockout mice (Trpa1−/−), compared with wild-type mouse) and “significantly prolonging the survival time” in assay [3] (wild-type mice (Trpa1+/+)). Further, the oxygen consumption entry in the assay on mice is recorded as “suppress the oxygen consumption”. Turning to `CCCCCc1cc(O)c2c(c1)OC(C)(C)[C@@H]1CCC(C)=C[C@@H]21` [49-THC, Δ9-tetrahydrocannabinol], the “survival time in 4% oxygen” value in the assay with male C57/BL6N mouse is on record as “extending the survival time”. As for `CC(=O)Nc1ccc(O)cc1` [APAP, acetaminophen], the results for the “survival time in 4% oxygen” value (in the assay with male C57/BL6N mouse; in assay [4] (Trpa1 knockout mice (Trpa1−/−)); in assay [4] (control mice (Trpa1+/−))) were “extending the survival time”, “such effect was not observed” and “extending the survival time”, respectively. Turning to `CCC1CSC(C)=N1` (stereo not drawn) [4E2MT, 4-ethyl-2-methyl-2-thiazoline], the “amount of TNF-α in blood (decreasing effect)” value in the assay on TNF-α was “this effect was suppressed”. As for `[Na+].[SH-]` [NaHS], the “protective effects in ischemia-reperfusion injury” value in assay [5] is listed as “protective effects in ischemia-reperfusion injury”.
